Reference: patent US20240148821A1, “PHARMACEUTICAL USE OF CYCLIC PEPTIDE COMPOUND” (CHUGAI SEIYAKU KABUSHIKI KAISHA, priority 2021, published 2024)
Numbered stars: 1 amine (or outer) side, 2 acyl side, 3 side chain; on linkers, the order of the positions; unused ones are H or OH. Bridge positions count the residues as written; N and C are the ends. Square brackets hold non-standard residues; d marks the D form. Peptide text beside a SMILES is read from it. * marks the point of attachment. hPhe(3,5-F2-4-CF3) = N[C@@H](CCc1cc(F)c(C(F)(F)F)c(F)c1)C(=O)O; hPhe(3-Cl-4-CF3) = N[C@@H](CCc1ccc(C(F)(F)F)c(Cl)c1)C(=O)O; hPhe(3-F,4-CF3) = N[C@@H](CCc1ccc(C(F)(F)F)c(F)c1)C(=O)O; NMePhe(4-CF3) = CN[C@@H](Cc1ccc(C(F)(F)F)cc1)C(=O)O; NEtPhe(4-Me) = CCN[C@@H](Cc1ccc(C)cc1)C(=O)O; NMeAbu(4,4,4-F3) = CN[C@@H](CC(F)(F)F)C(=O)O; NMePhe(4-Me) = CN[C@@H](Cc1ccc(C)cc1)C(=O)O; NMeNle(6-CHF2) = CN[C@@H](CCCCC(F)F)C(=O)O; NMedβ3hAla = C[C@H](CC(=O)[*:2])N(C)[*:1]; NMeNva(5,5-F2) = CN[C@@H](CCC(F)F)C(=O)O; hNle(7,7-F2) = N[C@@H](CCCCC(F)F)C(=O)O; NMeGly(cPent) = CN[C@H](C(=O)O)C1CCCC1; NMeAla(cPr) = CN[C@@H](CC1CC1)C(=O)O; NMe3Pal = CN[C@@H](Cc1cccnc1)C(=O)O; NMeCha = CN[C@@H](CC1CCCCC1)C(=O)O; Hyp = O=C(O)[C@@H]1C[C@@H](O)CN1; NMeChg = CN[C@H](C(=O)O)C1CCCCC1; NMeI = CC[C@H](C)[C@H](NC)C(=O)O; NMeD = CN[C@@H](CC(=O)O)C(=O)O; NMeL = CN[C@@H](CC(C)C)C(=O)O; NMeV = CN[C@H](C(=O)O)C(C)C; d(β3hA) = C[C@@H](N)CC(=O)O; NMeC = CN[C@@H](CS)C(=O)O; Morpholide = C1CN(*)CCO1; NMeA = CN[C@@H](C)C(=O)O; Piperidide = C1CCN(*)CC1; Pyrrolidide = C1CCN(*)C1; Ac5c = NC1(C(=O)O)CCCC1; Aze = O=C(O)[C@@H]1CCN1; Aib = CC(C)(N)C(=O)O; Cyclopropyl = C1CC1*; Sar = CNCC(=O)O

Tests used:
[1] = test system: Human pancreatic cancer cell line AsPC-1 (G12D mutation Kras); experiment: AsPC-1 cell growth inhibition (AsPC-1 CGI); type: cell-based; details: read-out: AsPC-1 cell growth inhibition, 50% growth inhibitory concentration (IC50 value); 96 hours, CellTiter-Glo, values classified in ranges
[2] = biological target: protein-protein interaction between Kras and SOS1 (biotin-tagged human Kras loaded with GDP, His-tagged human SOS1) (Homo sapiens (Human), UniProt P01116, G12D); experiment: Protein-protein interaction inhibition between Kras and SOS1 (KrasG12D-SOS PPI) using AlphaScreen; type: biochemical; details: AlphaScreen; biotin-tagged human Kras loaded with GDP, His-tagged human SOS1; read-out: KRAS G12D-SOS PPI IC50;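 also: kras produced in E. coli, Ni-coupled donor beads and streptavidin acceptor beads, excitation 680 nm with emission detected at 520–620 nm via singlet oxygen transfer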

Structure (SMILES) | IC50 [1] [nM] | IC50 [2] [nM]
CCO[C@@H]1C[C@H]2C(=O)NC3(CCCC3)C(=O)N(C)[C@@H](C3CCCC3)C(=O)N(C)[C@H](C(=O)N(C)C)CSCC(=O)N(C)[C@@H](CC(C)C)C(=O)N[C@@H]([C@@H](C)CC)C(=O)N(C)[C@@H](C)C(=O)N3CC[C@H]3C(=O)N(C)[C@@H](CC3CCCCC3)C(=O)N(C)CC(=O)N[C@@H](CCc3cc(F)c(C(F)(F)F)c(F)c3)C(=O)N2C1 [Compound 2176, (3S,9S,12S,17S,20S,23S,29R,32S,38S,40R)-20-[(2S)-butan-2-yl]-9-(cyclohexylmethyl)-32-cyclopentyl-3-[2-[3,5-difluoro-4-(trifluoromethyl)phenyl]ethyl]-40-ethoxy-N,N,7,10,17,18,24,30,33-nonamethyl-23(2-methylpropyl)-2,5,8,11,16,19,22,25,31,34,37-undecaoxospiro[27-thia-1,4,7,10,15,18,21,24,30,33,36-undecazatricyclo[36.3.0.012,15]hentetracontane-35,1′-cyclopentane]-29-carboxamide] ({CH2CO}-[NMeL]I[NMeA][Aze][NMeCha][Sar][hPhe(3,5-F2-4-CF3)][Hyp](Et)[Ac5c][NMeGly(cPent)][NMeC]-NMe2; thioether N-11) | > 500 | 120
CC[C@H](C)[C@@H]1NC(=O)[C@H](CC(C)C)N(C)C(=O)C[C@@H](C(=O)N2CCCCC2)N(C)C(=O)[C@H](C(C)C)N(C)C(=O)C2(CCCC2)NC(=O)[C@@H]2CCCN2C(=O)[C@H](CCc2ccc(C(F)(F)F)c(Cl)c2)NC(=O)CN(C)C(=O)[C@H](CC2CCCCC2)N(C)C(=O)[C@@H]2CCN2C(=O)[C@@H]2CCCN2C1=O [Compound 709] ([NMeL]IP[Aze][NMeCha][Sar][hPhe(3-Cl-4-CF3)]P[Ac5c][NMeV][NMeD]-Piperidide; lactam N-11) | > 500 | 41
CCO[C@@H]1C[C@H]2C(=O)NC3(CCCC3)C(=O)N(C)[C@@H](C3CCCCC3)C(=O)N(C)[C@H](C(=O)N3CCOCC3)CC(=O)N(C)[C@@H](CC(F)(F)F)C(=O)N[C@@H]([C@@H](C)CC)C(=O)N(C)CC(=O)N(C)CC(=O)N(C)[C@@H](Cc3ccc(C(F)(F)F)cc3)C(=O)N(C)CC(=O)N[C@@H](CCc3cc(F)c(C(F)(F)F)c(F)c3)C(=O)N2C1 [Compound 1297] ([NMeAbu(4,4,4-F3)]I[Sar][Sar][NMePhe(4-CF3)][Sar][hPhe(3,5-F2-4-CF3)][Hyp](Et)[Ac5c][NMeChg][NMeD]-Morpholide; lactam N-11) | ≤ 20 | 0.51
CC[C@H](C)[C@@H]1NC(=O)[C@H](CC(C)C)N(C)C(=O)C[C@@H](C(=O)N(C)C)N(C)C(=O)[C@H]([C@@H](C)CC)N(C)C(=O)C2(CCCC2)NC(=O)[C@@H]2CCCN2C(=O)[C@H](CCc2ccc(C(F)(F)F)c(F)c2)NC(=O)CN(C)C(=O)[C@H](Cc2ccc(C)cc2)N(C)C(=O)[C@@H]2CCN2C(=O)[C@H](C)N(C)C1=O [Compound 1017] ([NMeL]I[NMeA][Aze][NMePhe(4-Me)][Sar][hPhe(3-F,4-CF3)]P[Ac5c][NMeI][NMeD]-NMe2; lactam N-11) | ≤ 20 | 0.88
CC[C@H](C)[C@@H]1NC(=O)[C@H](CC(C)C)N(C)C(=O)C[C@@H](C(=O)N2CCOCC2)N(C)C(=O)[C@H]([C@@H](C)CC)N(C)C(=O)C2(CCCC2)NC(=O)[C@@H]2CCCN2C(=O)[C@H](CCc2cc(F)c(C(F)(F)F)c(F)c2)NC(=O)CN(C)C(=O)[C@H](Cc2ccc(C)cc2)N(CC)C(=O)[C@@H]2CCN2C(=O)[C@H](C)N(C)C1=O [Compound 1209] ([NMeL]I[NMeA][Aze][NEtPhe(4-Me)][Sar][hPhe(3,5-F2-4-CF3)]P[Ac5c][NMeI][NMeD]-Morpholide; lactam N-11) | ≤ 20 | 0.85
CC[C@H](C)[C@@H]1NC(=O)[C@H](C)N(C)C(=O)C[C@@H](C)NC(=O)[C@H](CC(C)C)N(C)C(=O)C2(CCCC2)NC(=O)[C@H](CC(C)C)N(C)C(=O)[C@H](CCc2ccc(C(F)(F)F)c(Cl)c2)NC(=O)CN(C)C(=O)[C@H](CC2CCCCC2)N(C)C(=O)CN(C)C(=O)CN(C)C1=O [Compound 61] (cyclo([Ac5c][NMeL][d(β3hA)][NMeA]I[Sar][Sar][NMeCha][Sar][hPhe(3-Cl-4-CF3)][NMeL])) | > 500 | 16
CC[C@H](C)[C@@H]1NC(=O)[C@H](CC(C)C)N(C)C(=O)C[C@@H](C(=O)N2CCCCC2)N(C)C(=O)[C@H](C(C)C)N(C)C(=O)C2(CCCC2)NC(=O)[C@@H]2CCCN2C(=O)[C@H](CCc2ccc(C(F)(F)F)c(Cl)c2)NC(=O)CN(C)C(=O)[C@H](CCC(F)F)N(C)C(=O)[C@@H]2CCN2C(=O)[C@H](C)N(C)C1=O [Compound 1769] ([NMeL]I[NMeA][Aze][NMeNva(5,5-F2)][Sar][hPhe(3-Cl-4-CF3)]P[Ac5c][NMeV][NMeD]-Piperidide; lactam N-11) | > 500 | 11
CC[C@H](C)[C@@H]1NC(=O)[C@H](CC(C)C)N(C)C(=O)C[C@@H](C(=O)N(C)C)N(C)C(=O)[C@H](C2CCCC2)N(C)C(=O)C2(CCCC2)NC(=O)[C@@H]2CCCN2C(=O)[C@H](CCc2ccc(C(F)(F)F)c(F)c2)NC(=O)CN(C)C(=O)[C@H](CC2CCCCC2)N(C)C(=O)[C@@H]2CCN2C(=O)[C@H](C)N(C)C1=O [Compound 334] ([NMeL]I[NMeA][Aze][NMeCha][Sar][hPhe(3-F,4-CF3)]P[Ac5c][NMeGly(cPent)][NMeD]-NMe2; lactam N-11) | ≤ 20 | 0.5
CC(C)C[C@H]1C(=O)N[C@@H](COC2CC2)C(=O)N(C)[C@@H](C)C(=O)N2CC[C@H]2C(=O)N(C)[C@@H](CC2CCCCC2)C(=O)N(C)CC(=O)N[C@@H](CCc2ccc(C(F)(F)F)c(Cl)c2)C(=O)N2CCC[C@H]2C(=O)NC2(CCCC2)C(=O)N(C)[C@@H](C(C)C)C(=O)N(C)[C@H](C(=O)N2CCCCC2)CC(=O)N1C [Compound 1811] ([NMeL]S(Cyclopropyl)[NMeA][Aze][NMeCha][Sar][hPhe(3-Cl-4-CF3)]P[Ac5c][NMeV][NMeD]-Piperidide; lactam N-11) | > 500 | 56
CCO[C@@H]1C[C@H]2C(=O)NC3(CCCC3)C(=O)N(C)[C@@H](C3CCCCC3)C(=O)N(C)[C@H](C(=O)N3CCCC3)CC(=O)N(C)[C@@H](CC(F)(F)F)C(=O)N[C@@H]([C@@H](C)CC)C(=O)N(C)CC(=O)N(C)CC(=O)N(C)[C@@H](CC3CCCCC3)C(=O)N(C)CC(=O)N[C@@H](CCc3cc(F)c(C(F)(F)F)c(F)c3)C(=O)N2C1 [Compound 1149] ([NMeAbu(4,4,4-F3)]I[Sar][Sar][NMeCha][Sar][hPhe(3,5-F2-4-CF3)][Hyp](Et)[Ac5c][NMeChg][NMeD]-Pyrrolidide; lactam N-11) | ≤ 20 | 0.62
CC[C@H](C)[C@@H]1NC(=O)[C@H](CC(C)C)N(C)C(=O)C[C@@H](C(=O)N2CCOCC2)N(C)C(=O)[C@H]([C@@H](C)CC)N(C)C(=O)C2(CCCC2)NC(=O)[C@@H]2CCCN2C(=O)[C@H](CCc2ccc(C(F)(F)F)c(Cl)c2)NC(=O)CN(C)C(=O)[C@H](Cc2ccc(C(F)(F)F)cc2)N(C)C(=O)[C@@H]2CCN2C(=O)[C@H](C)N(C)C1=O [Compound 276] ([NMeL]I[NMeA][Aze][NMePhe(4-CF3)][Sar][hPhe(3-Cl-4-CF3)]P[Ac5c][NMeI][NMeD]-Morpholide; lactam N-11) | ≤ 20 | 0.76
CC(C)C[C@H]1C(=O)N[C@@H](CCCCC(F)F)C(=O)N(C)[C@@H](C)C(=O)N2CC[C@H]2C(=O)N(C)[C@@H](CC2CCCCC2)C(=O)N(C)CC(=O)N[C@@H](CCc2ccc(C(F)(F)F)c(Cl)c2)C(=O)N2CCC[C@H]2C(=O)NC2(CCCC2)C(=O)N(C)[C@@H](C(C)C)C(=O)N(C)[C@H](C(=O)N2CCCCC2)CC(=O)N1C [Compound 145] ([NMeL][hNle(7,7-F2)][NMeA][Aze][NMeCha][Sar][hPhe(3-Cl-4-CF3)]P[Ac5c][NMeV][NMeD]-Piperidide; lactam N-11) | > 500 | 25
CC[C@H](C)[C@@H]1NC(=O)[C@H](CC(C)C)N(C)C(=O)C[C@@H](C(=O)N2CCCCC2)N(C)C(=O)[C@H](C2CCCCC2)N(C)C(=O)C2(CCCC2)NC(=O)[C@H](CC2CC2)N(C)C(=O)[C@H](CCc2ccc(C(F)(F)F)c(Cl)c2)NC(=O)CN(C)C(=O)[C@H](CC2CCCCC2)N(C)C(=O)CN(C)C(=O)CN(C)C1=O [Compound 200] ([NMeL]I[Sar][Sar][NMeCha][Sar][hPhe(3-Cl-4-CF3)][NMeAla(cPr)][Ac5c][NMeChg][NMeD]-Piperidide; lactam N-11) | > 500 | 13
CC[C@H](C)[C@@H]1NC(=O)[C@H](CC(C)C)N(C)C(=O)C[C@@H](C)N(C)C(=O)[C@H](C2CCCCC2)N(C)C(=O)C2(CCCC2)NC(=O)[C@H](Cc2cccnc2)N(C)C(=O)[C@H](CCc2ccc(C(F)(F)F)c(Cl)c2)NC(=O)CN(C)C(=O)[C@H](CC2CCCCC2)N(C)C(=O)CN(C)C(=O)CN(C)C1=O [Compound 1849] (cyclo([Ac5c][NMeChg][NMedβ3hAla][NMeL]I[Sar][Sar][NMeCha][Sar][hPhe(3-Cl-4-CF3)][NMe3Pal])) | > 500 | 230
CC[C@H](C)[C@@H]1NC(=O)[C@H](CC(C)C)N(C)C(=O)C[C@@H](C)NC(=O)[C@H](CC(C)C)N(C)C(=O)C(C)(C)NC(=O)[C@H](CC(C)C)N(C)C(=O)[C@H](CCc2ccc(C(F)(F)F)c(Cl)c2)NC(=O)CN(C)C(=O)[C@H](CCCCC(F)F)N(C)C(=O)CN(C)C(=O)CN(C)C1=O [Compound 1451] (cyclo([Aib][NMeL][d(β3hA)][NMeL]I[Sar][Sar][NMeNle(6-CHF2)][Sar][hPhe(3-Cl-4-CF3)][NMeL])) | > 500 | 20
